According to publication PMC10486429, “Investigations Using Albumin Binders to Modify the Tissue Distribution Profile of Radiopharmaceuticals Exemplified with Folate Radioconjugates” (Cancers, 2023):

Assay: Radiolytic stability of 177Lu-DOTA-ALBs in PBS (HPLC)
Format: physicochemical
Settings: room temperature, 100 MBq/500 µL PBS
Method: The radiolabeling of DOTA-ALBs was carried out under standard labeling conditions at pH 4.5. The ligands (10−100 μM) were mixed with lutetium-177 (no-carrier added [^177Lu]LuCl3; in 0.04 M HCl; ITM GmbH Medical Isotopes, Munich, Germany) to reach molar activities of 25–50 MBq/nmol (Supplementary Materials Section S2). An analytical HPLC system equipped with a C18 column and a radioactivity detector was used for quality control of the radiolabeled DOTA-ALBs (Supplementary Materials Section S2). The ^177Lu-DOTA-ALBs were used for preclinical investigations without separation of the labeled from the unlabeled fraction. The radiolytic stability of the ^177Lu-DOTA-ALBs (50 MBq/nmol) diluted in phosphate-buffered saline (PBS; 100 MBq/500 μL) was assessed in vitro in the absence and presence of L-ascorbic acid (Supplementary Materials Section S3). The n-octanol/PBS distribution coefficients (logD values) were determined using a shake-flask method according to an established protocol (Supplementary Materials Section S4). The logD values were analyzed using a one-way ANOVA with Tukey’s multiple comparisons post-test using GraphPad Prism software (version 8). A p-value of <0.05 was considered a statistically significant difference. […]
S2. Radiolabeling of DOTA-ALBs with Lutetium-177
Purpose: The DOTA-ALBs were labeled with lutetium-177 for subsequent in vitro and […]
Methods: The DOTA-ALBs were dissolved in Milli-Q water at a concentration of 1 mM. Radiolabeling was performed by incubation of the respective DOTA-ALBs with lutetium-177 (no-carrier-added, in 0.04 M HCl; ITM Medical Isotopes GmbH, Munich, Germany) at 95 °C for 10 min in a 1:5 (v/v) mixture of sodium acetate (0.5 M) and HCl (0.05 M) at pH ~4.5 as previously reported. Quality control was performed by reversed-phase HPLC using an aliquot of the radiolabeled DOTA-ALBs (⁓1.5 MBq) diluted in Milli-Q water containing penta-sodium diethylenetriamine pentaacetic acid (Na5-DTPA; 50 µM). The HPLC system (Merck Hitachi LaChrom HPLC) was equipped with a D-7000 interface, a radioactivity detector (LB 508, Berthold Technologies GmbH), a L-6200A pump and a reversed-phase C18 column (XterraTM, 5 µm, 4.6×150 mm, Waters, USA). A linear gradient of 0.1% TFA in Milli-Q water (95–20%) and MeCN (5–80%) over 15 min was used as a mobile phase at a 1 mL/min flow rate. […]
to 50 MBq/nmol. The 177Lu-DOTA-ALBs were used without further purification for their in vitro and in vivo evaluation.
S3. Radiolytic Stability of 177Lu-DOTA-ALBs
Purpose: The stability of each 177Lu-labeled DOTA-ALB was assessed at a high activ-ity concentration to assess potential radiolytic degradation in the absence and presence of […]
Methods: After quality control of the labeled DOTA-ALBs using HPLC (t0), the radio-labeled DOTA-ALBs (50 MBq/nmol) were diluted in PBS pH 7.4 to obtain an activity con-centration of 100 MBq/500 µL. The samples were incubated at room temperature in the absence or presence of L-ascorbic acid (3 mg). Sodium acetate solution (0.5 M, pH 8.0, 150 µL) was added to the samples containing L-ascorbic acid in order to adjust the pH value to ⁓6.5. The integrity of the radiolabeled DOTA-ALBs was assessed after a 4 h- and 24 h-incubation period using HPLC as described above (Supplementary Material, Section S2). The HPLC chromatograms were analyzed by determination of the peak area of the radio-labeled DOTA-ALBs, the released lutetium-177 as well as potential degradation products of unknown structure. The quantity of the intact product was expressed as per-centage of the sum of integrated peak areas of the entire chromatogram and set in relation to the original value determined at t0 (radiochemical purity ≥95% set as 100%).
Results: The results are reported in the main article and presented together with the retention times of the product peak in Table S2.
Table S2. Radiolytic stability of 177Lu-DOTA-ALBs after incubation in the absence or presence of L-ascorbic acid at room temperature (average of n=2 individually performed experiments). […]

SMILES: O=C(O)CN1CCN(CC(=O)O)CCN(CC(=O)NCCC(=O)N[C@@H](CCCCNC(=O)CCCc2ccc(I)cc2)C(=O)O)CCN(CC(=O)O)CC1.[177Lu] [[^177Lu]Lu-DOTA-ALB-1]
- Intact radioligand (with L-ascorbic acid, 4 h): 99%
- Intact radioligand (with L-ascorbic acid, 24 h): 96%
- Intact radioligand (without L-ascorbic acid, 4 h): 92%
- Intact radioligand (without L-ascorbic acid, 24 h): 51%

SMILES: O=C(O)CN1CCN(CC(=O)O)CCN(CC(=O)NCCC(=O)N[C@@H](CCCCNC(=O)c2ccc(CNC(=O)CCCc3ccc(I)cc3)cc2)C(=O)O)CCN(CC(=O)O)CC1.[177Lu] [[^177Lu]Lu-DOTA-ALB-3]
- Intact radioligand (with L-ascorbic acid, 4 h): 99%
- Intact radioligand (with L-ascorbic acid, 24 h): 97%
- Intact radioligand (without L-ascorbic acid, 4 h): 89%
- Intact radioligand (without L-ascorbic acid, 24 h): 39%

SMILES: O=C(O)CN1CCN(CC(=O)O)CCN(CC(=O)NCCC(=O)N[C@@H](CCCCNC(=O)CCCCc2ccc(I)cc2)C(=O)O)CCN(CC(=O)O)CC1.[177Lu] [[^177Lu]Lu-DOTA-ALB-24]
- Intact radioligand (with L-ascorbic acid, 4 h): 99%
- Intact radioligand (with L-ascorbic acid, 24 h): 95%
- Intact radioligand (without L-ascorbic acid, 4 h): 88%
- Intact radioligand (without L-ascorbic acid, 24 h): 39%

SMILES: O=C(O)CN1CCN(CC(=O)O)CCN(CC(=O)NCCC(=O)N[C@@H](CCCCNC(=O)c2ccc(CNC(=O)CCCCc3ccc(I)cc3)cc2)C(=O)O)CCN(CC(=O)O)CC1.[177Lu] [[^177Lu]Lu-DOTA-ALB-25]
- Intact radioligand (with L-ascorbic acid, 4 h): 99%
- Intact radioligand (with L-ascorbic acid, 24 h): 97%
- Intact radioligand (without L-ascorbic acid, 4 h): 91%
- Intact radioligand (without L-ascorbic acid, 24 h): 41%
